US5583147A, “Amides for the treatment of atherosclerosis” (The Dupont Merck Pharmaceutical Company, priority 1994, dated 1996)

target: T1, Acyl-CoA: Cholesterol Acyltransferase (ACAT) (Rattus norvegicus, UniProt Q7TQM4); assay: Inhibition of Acyl-CoA: Cholesterol Acyltransferase (ACAT) in Hepatic Microsomes (In Vitro Assay); type: biochemical, rat (male Sprague Dawley); conditions: 75 μM 14C-oleoyl-CoA, pH 7.4, 37° C., 10 min, read-out: ACAT Inhibitory Activity (In Vitro) (IC50)
T1 construct: centrifuged at 105,000×g for 1 hour to pellet the microsomes; from tissue; host or cells: liver microsomes of male Sprague Dawley rats
T1 sequence (Q7TQM4 1-524): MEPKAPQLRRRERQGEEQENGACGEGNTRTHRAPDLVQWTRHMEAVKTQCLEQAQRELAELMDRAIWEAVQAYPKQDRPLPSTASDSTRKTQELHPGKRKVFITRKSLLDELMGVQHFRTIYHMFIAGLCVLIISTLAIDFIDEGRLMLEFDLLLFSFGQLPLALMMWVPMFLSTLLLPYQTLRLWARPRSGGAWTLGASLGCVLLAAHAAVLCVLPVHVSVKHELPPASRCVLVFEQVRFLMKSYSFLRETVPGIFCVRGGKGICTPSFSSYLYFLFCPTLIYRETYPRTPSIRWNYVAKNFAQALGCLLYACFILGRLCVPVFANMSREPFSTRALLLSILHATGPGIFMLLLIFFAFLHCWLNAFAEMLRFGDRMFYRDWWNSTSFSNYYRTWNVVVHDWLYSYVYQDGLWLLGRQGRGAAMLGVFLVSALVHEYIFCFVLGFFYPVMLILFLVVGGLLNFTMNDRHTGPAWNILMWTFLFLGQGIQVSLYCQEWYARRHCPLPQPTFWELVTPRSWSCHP
Method: A. Assay of the Inhibition of Acyl-CoA: Cholesterol Acyltransferase (ACAT) in Hepatic Microsomes (In Vitro Assay)
The ability of the compounds to inhibit ACAT, the enzyme responsible for the intracellular synthesis of cholesteryl esters, was tested as follows. Male Sprague Dawley rats weighing 150-300 g, were fed rat chow ad libitum. The animals were fasted for twenty-four hours prior to being euthanized by CO2. The livers were perfused in situ with 50 ml of cold 0.25 sucrose, excised, and homogenized in three volumes of 0.1M phosphate buffer, pH 7.4, that contained 0.5 mM EDTA (ethylenediamine-tetraacetic acid), 1.0 mM glutathione, 0.25M sucrose and […] leupeptin. Microsomes were obtained by differential centrifugation; the supernatant from an initial spin at 15,000×g for 15 minutes was centrifuged at 105,000×g for 1 hour to pellet the microsomes. The microsomes were suspended in homogenization buffer, reisolated by centrifugation, and stored at -70° C. Microsomes were used within one month of preparation.
The control assay in a final volume of 200 μl consisted of 200 μg of microsomal protein, 75 μM ^14 C-oleoyl-CoA (10,000 dpm/nmol) in 0.1M phosphate, pH 7.4, that contained 1 mM glutathione. Compounds were added in 5 μl of DMSO (dimethyl sulfoxide) and additional controls were run with DMSO only. All components, except the oleoyl-CoA, were preincubated for 15 min. at 37° C. prior to the initiation of the reaction by the addition of oleoyl-CoA. The assay was terminated after 10 min by the addition of 4 ml of chloroform:methanol (2:1, v/v). 20,000 dpm of ^3 H-cholesteryl oleate and 10 μg of unlabeled cholesteryl oleate and oleic acid were added as an internal standard and carriers, respectively. After allowing 10 min. for lipid extraction, the samples were centrifuged at 1,000×g for 10 min to separate the solvent layers. The chloroform layer containing the neutral lipids was spotted onto a Baker SI250-Pa silica gel TLC plate and the plate developed using a hexane:diethyl ether:acetic acid (170:30:1) v/v/v) mobile phase. The lipids were visualized by their interaction with iodine vapor and the cholesteryl ester spot was scraped into a scintillation vial and counted. The specific activity of ACAT in the control incubation averaged 260 pmol/min/mg microsomal protein. The data obtained are expressed as the concentration at which ACAT activity is inhibited by 50% (IC50).

IC50	Structure (SMILES)
< 1 µM	COc1ccc(CSC(C(=O)Nc2c(SC)cc(C)nc2SC)c2ccc(C(F)(F)F)cc2)cc1 (stereo not drawn) [Example 381, N-[2,4-bis(methylthio)-6-methyl-3-pyridyl]-α-(4-methoxy-benzylthio)-4-trifluoromethyl-phenylacetamide]
< 1 µM	CSc1cc(C)nc(SC)c1NC(=O)C(SCc1ccccc1)c1ccc(Oc2ccccc2)cc1 (stereo not drawn) [Example 292, N-[2,4-bis(methylthio)-6-methyl-3-pyridyl]-α-benzylthio-4-phenoxy-phenylacetamide]
< 1 µM	CCCCCCSC(C(=O)Nc1c(SC)cc(C)nc1SC)c1ccc(Cl)cc1 (stereo not drawn) [Example 85, N-[2,4-bis(methylthio)-6-methyl-3-pyridyl]-α-hexylthio-4-chloro-phenylacetamide]
< 1 µM	CSc1cc(C)nc(SC)c1NC(=O)C(SCc1ccc(F)cc1)c1ccc(Cl)cc1 (stereo not drawn) [Example 91, N-[2,4-bis(methylthio)-6-methyl-3-pyridyl]-α-(4-fluoro-benzylthio)-4-chloro-phenylacetamide]
< 1 µM	CSc1cc(C)nc(SC)c1NC(=O)C(SCc1ccc(Cl)cc1)c1ccc(C(C)C)cc1 (stereo not drawn) [Example 410, N-[2,4-bis(methylthio)-6-methyl-3-pyridyl]-α-(4-chloro-benzylthio)-4-isopropylphenylacetamide]
< 1 µM	CSc1cc(C)nc(SC)c1NC(=O)C(SCc1ccc(F)cc1)c1ccc(C(F)(F)F)cc1 (stereo not drawn) [Example 380, N-[2,4-bis(methylthio)-6-methyl-3-pyridyl]-α-(4-fluoro-benzylthio)-4-trifluoromethyl-phenylacetamide]
< 1 µM	CCCCCCSC(C(=O)Nc1c(SC)cc(C)nc1SC)c1ccc(Oc2ccccc2)cc1 (stereo not drawn) [Example 288, N-[2,4-bis(methylthio)-6-methyl-3-pyridyl]-α-hexylthio-4-phenoxy-phenylacetamide]
< 1 µM	COc1ccc(C(SCc2ccc(Cl)cc2)C(=O)Nc2c(SC)cc(C)nc2SC)cc1 (stereo not drawn) [Example 123, N-[2,4-bis(methylthio)-6-methyl-3-pyridyl]-α-(4-chloro-benzylthio)-4-methoxy-phenylacetamide]
< 1 µM	CCCCCCSC(C(=O)Nc1c(SC)cc(C)nc1SC)c1ccc(C(C)(C)C)cc1 (stereo not drawn) [Example 431, N-[2,4-bis(methylthio)-6-methyl-3-pyridyl]-α-hexylthio-4-tert-butylphenylacetamide]
< 1 µM	COc1ccc(SC(C(=O)Nc2c(SC)cc(C)nc2SC)c2ccc(C(F)(F)F)cc2)cc1 (stereo not drawn) [Example 394, N-[2,4-bis(methylthio)-6-methyl-3-pyridyl]-α-(4-methoxy-phenylthio)-4-trifluoromethyl-phenylacetamide]
< 1 µM	CSc1cc(C)nc(SC)c1NC(=O)C(SCc1ccccc1)c1cccc(Oc2ccc(Br)cc2)c1 (stereo not drawn) [Example 322, N-[2,4-bis(methylthio)-6-methyl-3-pyridyl]-α-benzylthio-3-(4'-bromophenoxy)-phenylacetamide]
< 1 µM	CSc1cc(C)nc(SC)c1NC(=O)C(SCc1ccc(Cl)cc1)c1ccc(Oc2ccccc2)cc1 (stereo not drawn) [Example 295, N-[2,4-bis(methylthio)-6-methyl-3-pyridyl]-α-(4-chloro-benzylthio)-4-phenoxy-phenylacetamide]
< 1 µM	CCSC(C(=O)Nc1c(SC)cc(C)nc1SC)c1ccccc1 (single isomer, unassigned) [Example 49, N-[2,4-bis(methylthio)-6-methyl-3-pyridyl]-D-(-)-α-ethylthio-phenylacetamide]

More lines, now with the values behind:

Structure (SMILES)	IC50
COc1ccc(SC(C(=O)Nc2c(SC)cc(C)nc2SC)c2ccc(OC)cc2)cc1 (stereo not drawn) [Example 137, N-[2,4-bis(methylthio)-6-methyl-3-pyridyl]-α-(4-methoxy-phenylthio)-4-methoxy-phenylacetamide]	< 1 µM
CSc1cc(C)nc(SC)c1NC(=O)C(SCc1ccccc1)c1ccc(Cl)cc1 (stereo not drawn) [Example 89, N-[2,4-bis(methylthio)-6-methyl-3-pyridyl]-α-benzylthio-4-chloro-phenylacetamide]	< 1 µM
CCCCOc1ccc(CSC(C(=O)Nc2c(SC)cc(C)nc2SC)c2ccc(C(C)C)cc2)cc1 (stereo not drawn) [Example 411, N-[2,4-bis(methylthio)-6-methyl-3-pyridyl]-α-(4-butoxy-benzylthio)-4-isopropylphenylacetamide]	< 1 µM
CSc1cc(C)nc(SC)c1NC(=O)C(SCc1ccc(F)cc1)c1ccc(-c2ccccc2)cc1 (stereo not drawn) [Example 464, N-[2,4-bis(methylthio)-6-methyl-3-pyridyl]-α-(4-fluoro-benzylthio)-4-biphenylacetamide]	< 1 µM
CSc1cc(C)nc(SC)c1NC(=O)C(SCc1ccccc1)c1ccccc1 (single isomer, unassigned) [Example 46, N-[2,4-bis(methylthio)-6-methyl-3-pyridyl]-D-(-)-α-benzylthio-phenylacetamide]	< 1 µM
COc1ccc(CSC(C(=O)Nc2c(SC)cc(C)nc2SC)c2ccc(-c3ccccc3)cc2)cc1 (stereo not drawn) [Example 465, N-[2,4-bis(methylthio)-6-methyl-3-pyridyl]-α-(4-methoxy-benzylthio)-4-biphenylacetamide]	< 1 µM
CCCCCCSC(C(=O)Nc1c(SC)cc(C)nc1SC)c1ccc(C(C)C)cc1 (stereo not drawn) [Example 403, N-[2,4-bis(methylthio)-6-methyl-3-pyridyl]-α-hexylthio-4-isopropylphenylacetamide]	< 1 µM
CSc1cc(C)nc(SC)c1NC(=O)C(SCc1ccc(F)cc1)c1ccc(Cl)c(Cl)c1 (stereo not drawn) [Example 181, N-[2,4-bis(methylthio)-6-methyl-3-pyridyl]-α-(4-fluoro-benzylthio)-3,4-dichloro-phenylacetamide]	< 1 µM
CSc1cc(C)nc(SC)c1NC(=O)C(SCc1ccccc1)c1ccc(C(C)(C)C)cc1 (stereo not drawn) [Example 435, N-[2,4-bis(methylthio)-6-methyl-3-pyridyl]-α-benzylthio-4-tert-butylphenylacetamide]	< 1 µM
CCCCCCSC(C(=O)Nc1c(C(C)C)cccc1C(C)C)c1ccccc1 (single isomer, unassigned) [Example 42, N-(2,6-diisopropyl-phenyl)-D-(-)-α-hexylthio-phenylacetamide]	< 1 µM
CCCCCCSC(C(=O)Nc1c(SC)cc(C)nc1SC)c1cccc(Oc2ccc(Br)cc2)c1 (stereo not drawn) [Example 317, N-[2,4-bis(methylthio)-6-methyl-3-pyridyl]-α-hexylthio-3-(4'-bromophenoxy)-phenylacetamide]	< 1 µM
CSc1cc(C)nc(SC)c1NC(=O)C(SCc1ccccc1)c1cccc(Oc2ccccc2)c1 (stereo not drawn) [Example 321, N-[2,4-bis(methylthio)-6-methyl-3-pyridyl]-α-benzylthio-3-phenoxy-phenylacetamide]	< 1 µM
CSc1cc(C)nc(SC)c1NC(=O)C(SCc1ccccc1)c1ccccc1 (single isomer, unassigned) [Example 47, N-[2,4-bis(methylthio)-6-methyl-3-pyridyl]-L-(+)-α-benzylthio-phenylacetamide]	< 1 µM
CSc1cc(C)nc(SC)c1NC(=O)C(SCc1cccnc1)c1ccc(-c2ccccc2)cc1 (stereo not drawn) [Example 484, N-[2,4-bis(methylthio)-6-methyl-3-pyridyl]-α-(3-pyridyl-methylthio)-4-biphenylacetamide]	< 1 µM
CSc1cc(C)nc(SC)c1NC(=O)C(SCc1ccc(Cl)cc1)c1ccc(C(C)(C)C)cc1 (stereo not drawn) [Example 437, N-[2,4-bis(methylthio)-6-methyl-3-pyridyl]-α-(4-chloro-benzylthio)-4-tert-butylphenylacetamide]	< 1 µM
COc1ccc(CSC(C(=O)Nc2c(SC)cc(C)nc2SC)c2ccc(F)cc2)cc1 (stereo not drawn) [Example 154, N-[2,4-bis(methylthio)-6-methyl-3-pyridyl]-α-(4-methoxy-benzylthio)-4-fluoro-phenylacetamide]	< 1 µM
